Experimental data published in paper PMC11676775, “Novel Copper(II) Coordination Compounds Containing Pyridine Derivatives of N^4-Methoxyphenyl-Thiosemicarbazones with Selective Anticancer Activity” (Molecules, 2024).
Like-named read-outs stand apart in the source and are kept apart here.

Legend:
HeLa cancer cell line = assay: Cell proliferation resazurin assay, HeLa; format: cell-based, human; conditions: 24 h incubation
Experimental: (§1) The proliferation of HeLa, BxPC-3, RD, and MDCK cells was assessed using resazurin. Triplicate cultures of 1 × 10^4 cells in 100 μL of medium were incubated at 37 °C, 3% CO2, in 96-well plates. Compounds were dissolved in DMSO to form 1 × 10⁻^2 M solutions, then diluted with media and added to wells for a 24 h incubation. Following this, 20 μL of resazurin solution was added and incubated for 4 h. Absorbance was measured at 570 nm and 600 nm.
(§2) Percentage inhibition was calculated as follows:(2) I (%)=100−Abs570 nmsample−Abs600 nmsample /[…]−Abs600 nmcontrol ×100
(§3) The formula accounts for absorbance differences at 570 nm and 600 nm to determine cell viability.
(§4) The half maximal inhibitory concentration (IC50) indicated the effectiveness of the compounds on cell lines, as defined by FDA guidelines as the concentration needed for 50% inhibition in vitro. Toxicity was assessed via the median lethal concentration (LC50), the concentration causing death in 50% of juvenile daphnids, calculated using a dose–response equation via least squares fitting. All data are presented as mean ± standard deviation (SD). Statistical analyses were conducted with specialized software.

K-562 cancer cell line = assay: Cell proliferation MTT assay, K-562; format: cell-based, human
Experimental: (§5) The MTT assay, a colorimetric method, quantifies viable cells to evaluate cytotoxic effects on LNCaP, MCF-7, HepG-2, and K-562 cell lines. It measures the conversion of MTT to insoluble formazan by mitochondrial succinate dehydrogenase in active cells, reflecting cell viability. Compounds were dissolved in saline and DMSO (≤0.1%) and tested at 0.1, 1, and 10 μM concentrations, following Mosmann’s method.
(§6) Suspension cells were centrifuged, and adherent cells were trypsinized then diluted to 5 × 10⁴ cells/mL in RPMI 1640 with 10% fetal bovine serum. Subsequently, 5 × 10^3 cells in 100 μL were plated in 96-well plates and incubated for attachment. After adding compounds, cells were incubated for 24 h at 37 °C and 3% CO2. MTT reagent was introduced, and cells were monitored for formazan presence under a microscope.
(§7) Upon observing purple precipitate, detergent reagent was added, and plates were kept in the dark for 4 h. Absorbance was measured at 540 nm using a BioTek reader (Agilent, Santa Clara, CA, USA). Results, indicating percent inhibition, were calculated using the following formula:(3) I (%)=100−Abs540 nmsample /Abs540 nmcontrol ×100
(§8) IC50 values were determined as a measure of compound efficacy on cancer cell proliferation.

HL-60 cancer cell line = assay: Antiproliferative activity, HL-60; format: cell-based, human
MCF-7 cancer cell line = assay: Cell proliferation MTT assay, MCF-7; format: cell-based, human
Experimental: as §5, §6, §7, §8

BxPC-3 cancer cell line = assay: Cell proliferation resazurin assay, BxPC-3; format: cell-based, human; conditions: BxPC-3, 24 h incubation
Experimental: as §1, §2, §3, §4

RD cancer cell line = assay: Cell proliferation resazurin assay, RD; format: cell-based, human; conditions: 24 h incubation
Experimental: as §1, §2, §3, §4

HepG-2 cancer cell line = assay: Cell proliferation MTT assay, HepG-2; format: cell-based, human
Experimental: as §5, §6, §7, §8

MDCK normal cell line = assay: Cell proliferation resazurin assay, MDCK normal cell line; format: cell-based, canine; conditions: 24 h incubation
Experimental: as §1, §2, §3, §4

LNCaP cancer cell line = assay: Cell proliferation MTT assay, LNCaP; format: cell-based, human; conditions: 24 h incubation
Experimental: as §5, §6, §7, §8

Daphnia magna = assay: in vivo; conditions: pH 7
Experimental: Toxicity testing for certain substances was conducted using Daphnia magna, following ISO 6341:2012 guidelines. Daphnia magna were cultured parthenogenetically at the Institute of Zoology and fed Chlorella vulgaris grown aseptically. The algal medium included CaCl2, NaHCO3, KCl, and MgSO4·7H2O, with pH adjusted to 7.0 and O2 ≥ 6.00 mg/L. Juvenile daphnids were cultured in 24-well plates, each holding 10 daphnids in 1000 μL of each compound dilution. The bioassay tested concentrations from 0.1 to 100 μM to determine LC50, using doxorubicin as the positive control and a 0.1% DMSO solution as the negative control. The daphnids were incubated at 22 ± 2 °C with a 16 h/8 h light/dark cycle.
The experiment was conducted in triplicate to ensure accuracy.
as §4

[1] = system: HeLa, RD, and BxPC-3 cancer cell lines; assay: Antiproliferative activity, summary over HeLa, RD and BxPC-3 cell lines; format: cell-based; conditions: Homo sapiens; range over the three cancer cell lines; read-out: IC50 range against HeLa, RD, and BxPC-3 cell lines
Experimental: as §1, §2, §3, §4

[2] = Homo sapiens, K562, K-562, 24 h incubation
[3] = Homo sapiens, MCF7, MCF-7, 24 h incubation
[4] = Homo sapiens, HepG2, HepG-2, 24 h incubation
[5] = other: immersion in compound dilution

Row | Structure (SMILES) | IC50 (HeLa cancer cell line) [µM] | IC50 (BxPC-3 cancer cell line) [µM] | IC50 (RD cancer cell line) [µM] | IC50 (MDCK normal cell line) [µM] | IC50 (HeLa cancer cell line; Homo sapiens) [µM] | IC50 (K-562 cancer cell line; [2]) [µM] | IC50 (HL-60 cancer cell line; Homo sapiens) [µM] | IC50 (MCF-7 cancer cell line; [3]) [µM] | IC50 (BxPC-3 cancer cell line; Homo sapiens) [µM] | IC50 (RD cancer cell line; Homo sapiens) [µM] | IC50 (HepG-2 cancer cell line; [4]) [µM] | IC50 (MDCK normal cell line; Canis lupus familiaris) [µM] | IC50 (LNCaP cancer cell line; Homo sapiens) [µM] | LC50 at 24 h (Daphnia magna; [5]) [µM] | other results
1 | COc1ccccc1NC(=NN=Cc1ccccn1)[S][Cu][Cl] [C1, [Cu(L^1)Cl]] | 0.8 ± 0.04 | 0.1 ± 0.02 | 0.1 ± 0.01 | 0.3 ± 0.02 |  |  |  |  |  |  |  |  |  |  | IC50 (K-562 cancer cell line; K-562, 24 h incubation): 64 ± 1.4 µM; IC50 (HL-60 cancer cell line): 35 ± 2.1 µM; IC50 (MCF-7 cancer cell line; MCF-7, 24 h incubation): 100 ± 4.2 µM; IC50 (HepG-2 cancer cell line; HepG-2, 24 h incubation): 68 ± 4.2 µM; IC50 (LNCaP cancer cell line): 45 ± 2.1 µM
2 | COc1ccccc1NC(=NN=Cc1ccccn1)[S][Cu][O][N+](=O)[O-] [C2, [Cu(L^1)NO3]] | 0.8 ± 0.03 | 0.1 ± 0.01 | 0.1 ± 0.01 | 0.6 ± 0.03 |  |  |  |  |  |  |  |  |  |  | IC50 (K-562 cancer cell line; K-562, 24 h incubation): 0.5 ± 0.01 µM; IC50 (HL-60 cancer cell line): 0.03 ± 0.001 µM; IC50 (MCF-7 cancer cell line; MCF-7, 24 h incubation): 0.1 ± 0.05 µM; IC50 (HepG-2 cancer cell line; HepG-2, 24 h incubation): 0.4 ± 0.05 µM; IC50 (LNCaP cancer cell line): 0.8 ± 0.03 µM
3 | COc1cccc(NC(=NN=Cc2ccccn2)[S][Cu][O][N+](=O)[O-])c1 [C4, [Cu(L^2)NO3]] | 0.1 ± 0.01 | 0.1 ± 0.05 | 0.1 ± 0.06 | 1.3 ± 0.4 |  |  |  |  |  |  |  |  |  |  | 
4 | COc1ccc(NC(=NN=Cc2ccccn2)[S][Cu][Cl])cc1 [C5, [Cu(L^3)Cl]] | 26.1 ± 1.2 | 9.4 ± 1.2 | 19.7 ± 2.4 | 26.6 ± 2.4 |  |  |  |  |  |  |  |  |  |  | 
5 | COc1ccc(NC(=NN=Cc2ccccn2)[S][Cu][O][N+](=O)[O-])cc1 [C6, [Cu(L^3)NO3]] | 1.1 ± 0.05 | 0.1 ± 0.04 | 1.2 ± 0.03 | 2.1 ± 1.5 |  |  |  |  |  |  |  |  |  |  | IC50 (K-562 cancer cell line; K-562, 24 h incubation): 0.03 ± 0.002 µM; IC50 (HL-60 cancer cell line): 0.03 ± 0.006 µM; IC50 (MCF-7 cancer cell line; MCF-7, 24 h incubation): 0.6 ± 0.03 µM; IC50 (HepG-2 cancer cell line; HepG-2, 24 h incubation): 0.6 ± 0.03 µM; IC50 (LNCaP cancer cell line): 0.3 ± 0.04 µM
6 | COc1cccc(NC(=NN=C(C)c2ccccn2)[S][Cu][O][N+](=O)[O-])c1 [C7, [Cu(L^4)NO3]] | 0.1 ± 0.04 | 0.2 ± 0.05 | 0.5 ± 0.06 | 0.9 ± 0.04 |  |  |  |  |  |  |  |  |  |  | 
7 | COc1cccc(NC(=NN=C(C)c2ccccn2)[S][Cu][Cl])c1 [C8, [Cu(L^4)Cl]] | 0.1 ± 0.03 | 0.1 ± 0.07 | 0.2 ± 0.04 | 1.1 ± 0.06 |  |  |  |  |  |  |  |  |  |  | 
8 | [NH2][Pt]([NH2])([Cl])[Cl] [CDDP, cisplatin, reference compound] | 30.9 ± 1.2 | 11.2 ± 1.3 | 4.6 ± 0.6 | 1.5 ± 0.3 |  |  |  |  |  |  |  |  |  |  | 
9 | COc1cccc2c1C(=O)c1c(O)c3c(c(O)c1C2=O)C[C@@](O)(C(=O)CO)C[C@@H]3O[C@H]1C[C@H](N)[C@H](O)[C@H](C)O1 [DOXO, doxorubicin, reference compound] |  |  |  |  | 6.2 ± 0.5 | 0.4 ± 0.03 | 1 ± 0.3 | 14 ± 1.5 | 6 ± 0.1 | 16.2 ± 1.4 | 2.8 ± 1.1 | 10.8 ± 1.2 | 1.1 ± 0.02 |  | LC50 at 24 h (Daphnia magna): 3.6 µM
10 | COc1ccccc1NC(=S)N/N=C/c1ccccn1 [HL^1, N-(2-Methoxyphenyl)-2-[(pyridin-2-yl)methylidene] hydrazine-1-carbothioamide] |  |  |  |  | 81.2 ± 5.3 | 10 ± 1.2 | 0.04 ± 0.006 | 10 ± 1.2 | 0.1 ± 0.05 | 100 ± 4.2 | 0.8 ± 0.04 | 10.1 ± 1.2 | 100 ± 4.9 | 15 | 
11 | COc1cccc(NC(=S)N/N=C/c2ccccn2)c1 [HL^2, N-(3-Methoxyphenyl)-2-[(pyridin-2-yl)methylidene] hydrazine-1-carbothioamide] |  |  |  |  | 0.1 ± 0.01 | 0.9 ± 0.05 | 0.01 ± 0.004 | 3.5 ± 0.5 | 0.1 ± 0.04 | 0.2 ± 0.03 | 0.6 ± 0.06 | 0.4 ± 0.06 | 0.9 ± 0.05 | 13 | IC50 [1]: 0.1 to 0.2 µM
12 | COc1ccc(NC(=S)N/N=C/c2ccccn2)cc1 [HL^3, N-(4-Methoxyphenyl)-2-[(pyridin-2-yl)methylidene] hydrazine-1-carbothioamide] |  |  |  |  | 100 ± 5.9 | 10 ± 1.6 | 0.01 ± 0.001 | 100 ± 4.6 | 2.1 ± 0.2 | 0.5 ± 0.04 | 52 ± 0.01 | 100 ± 4.6 | 100 ± 4.2 | 35 | IC50 [1]: 0.5 to 100 µM
13 | COc1cccc(NC(=S)N/N=C(\C)c2ccccn2)c1 [HL^4, N-(3-Methoxyphenyl)-2-[1-(pyridin-2-yl)ethylidene] hydrazine-1-carbothioamide] |  |  |  |  | 5.8 ± 1.2 | 16 ± 2.2 | 0.06 ± 0.004 | 55 ± 2.1 | 0.1 ± 0.03 | 11.6 ± 0.5 | 3.1 ± 0.3 | 14.9 ± 1.6 | 100 ± 3.1 | 14 | IC50 [1]: 0.1 to 11 µM
14 | COc1cccc(NC(=S)N/N=C(/c2ccccc2)c2ccccn2)c1 [HL^5, N-(3-Methoxyphenyl)-2-[phenyl (pyridin-2-yl)methylidene] hydrazine-1-carbothioamide] |  |  |  |  | 100 ± 4.2 | 0.1 ± 0.01 | 0.02 ± 0.006 | 5.2 ± 0.6 | 3.2 ± 0.3 | 0.5 ± 0.06 | 0.3 ± 0.01 | 100 ± 3.8 | 8.1 ± 1.2 | 45 | IC50 [1]: 0.5 to 100 µM
